Several values for one entry are separate records, joined by “and”; a condition that tells them apart may be missing. Equal entries are not always repeated. Where two headings read alike, the source gives them in different places.
Test system: Pseudomonas aeruginosa ATCC 9027
Test: MIC determination by two fold dilutions in 96 well microtiter plates, biocide with and without bio-surfactant
Assay type: cell-based
Conditions: for MIC: Pseudomonas aeruginosa; for microbial growth (absorbance at 660 nm): Table 3 / FIG. 5, triplicate wells
Procedure: In microbiology, minimum inhibitory concentration (MIC) is defined as the lowest concentration of an antimicrobial that will inhibit the growth of an microorganism after overnight or long incubation. Minimum inhibitory concentrations are important in diagnostic laboratories to confirm resistance of microorganisms to an antimicrobial agent and also to monitor the activity of new antimicrobial agents. A lower MIC is an indication of a better antimicrobial agent, as less is generally needed for acceptable performance. An MIC determination is generally regarded as a basic or standard laboratory measurement of the activity of an antimicrobial agent against an organism.
Biocides tested: • Methylchloroisothiazolinone/Methylisothiazolinone (CMIT/MIT) [also known as KATHON]: • Benzisothiazolinone [BIT] • Methylisothiazolinone [MIT]
Microorganism Used: Pseudomonas aeruginosa ATCC 9027
Biosurfactants tested: • 1. R95D90 (SigmaAldrich) 95% pure rhamnolipid with 90% Di-rhamnolipid dominant • 2. R95M90 (SigmaAldrich) 95% pure rhamnolipid with 90% Mono-rhamnolipid dominant • 3. Natural Saponin
MIC test is a method for determining the Minimum Inhibitory Concentration of a compound required to inhibit or kill the test organisms. MIC50 test is a method for determining the Minimum Inhibitory Concentration of a compound required to inhibit or kill the 50% of the test organisms.
1. The method was based on the MIC (Minimum Inhibitory Concentration) determination by standard two fold dilutions prepared in an appropriate medium and tested in 96 well microtiter plates.
2. A 4× concentration of the active from bio-surfactant stock solution [400 ppm] was prepared to dispense into […].
3. The plates were divided into four sections. Unless otherwise stated, Columns 1-3 received a combination of the bio-surfactant and biocide, Columns 4-6 received biocide alone, and Columns 7-9 received the bio-surfactant alone. Column 10 was left empty, Column 11 was blank medium and Column 12 was medium plus the suspension of the organism.
5. One microtiter plate per test organism and per biocide was used. The dilution scheme is attached as a separate PDF file “Dilution Scheme”.
6. 100 μL of sterile water was aliquoted into to columns 4-6, 11 and 12 with the aid of a 12-channel pipettor add 50 μL in Columns 1-3 and 7-9.
7. Dispensed 50 μL of the 8× stock solution of an appropriate biocide (MIT, BIT or Kathon) in Row A Columns 1-3
8. After mixing with the aid of the multichannel pipettor, 50 μL from the row A wells were transferred to 2nd row [B] wells and after mixing, 50 μL transferred to row C and, the operations were repeated down to row […] and 50 μL from H row (the last row) were discarded.
9. Make 4× stock solution [400 ppm] of each of the bio-surfactants. Dispensed 50 μL of bio-surfactant in 4 different 96 well plates in Columns 7-9 in each of the respective plates.
10. In wells 4-6, 100 μL of individual biocides at 4× concentration were added to the top row A, then serially diluted down to row H while discarding the final 100 μL from row H.
11. Columns 1-3 and 7-9 received 50 μL of 4× bio-surfactant.
12. In a separate tube, prepared bacterial inoculums from 24 hr grown cultures by suspending the cells in 2× Tryptic Soy Broth medium for bacteria.
13. The bacterial inocula were adjusted to 5-6 logs cfu/ml by measuring the turbidity.
14. With an aid of the multichannel pipettor, aliquots of 100 μL organisms were dispensed into each well except for Column 11 in which blank medium was added.
15. Incubated the plates at 35 Celsius degrees for 24 hours for bacterial growth
16. Made visual recordings of positive or negative growth in wells. Measured the absorbance at 660 nm and assessed viability via addition of resazurin dye. Note: for bacterial growth, 10 μL of dye Resazurin stock [250 mg/50 mL] was added to determine the positive and negative growths as determined by color change from blue to pink. […]

SMILES: O=c1[nH]sc2ccccc12 [BIT, 1,2-benzisothiazolin-3-one]
- MIC (ATCC9027, biocide alone, Di-Rhamnolipid 95% series, read-out: MIC w/o BS): 25 µg/mL
- MIC (ATCC9027, biocide alone, Mono + Di Rhamnolipid 95% series, read-out: MIC w/o BS): 25 µg/mL
- MIC (ATCC9027, biocide alone, Mono-Rhamnolipid 95% series, read-out: MIC w/o BS): 25 µg/mL
- MIC (ATCC9027, biocide alone, Natural Saponin series, read-out: MIC w/o BS): 25 µg/mL
- MIC (ATCC9027, with Di-Rhamnolipid 95% (50 ppm), read-out: MIC with BS): 12.5 µg/mL
- MIC (ATCC9027, with Mono + Di Rhamnolipid 95% (50 ppm), read-out: MIC with BS): 12.5 µg/mL
- MIC (ATCC9027, with Mono-Rhamnolipid 95% (50 ppm), read-out: MIC with BS): 12.5 µg/mL
- MIC (ATCC9027, with Natural Saponin (Purchased), 50 ppm active, read-out: MIC with BS): > 200 µg/mL
- microbial growth (absorbance at 660 nm) (PPM 1.56): 0.046 and 0.048 and 0.047
- microbial growth (absorbance at 660 nm) (PPM 3.13): 0.046 and 0.047 and 0.048
- microbial growth (absorbance at 660 nm) (PPM 6.25): 0.047 and 0.048
- microbial growth (absorbance at 660 nm) (PPM 50): 1.278 and 1.284 and 1.285
- microbial growth (absorbance at 660 nm) (PPM 100): 1.339 and 1.313 and 1.302
- microbial growth (absorbance at 660 nm) (PPM 200): 1.371 and 1.379

SMILES: Cn1sccc1=O [MIT, 2-methyl-4-isothiazolin-3-one]
- MIC (ATCC9027, read-out: MIC w/o BS, biocide alone, Di-Rhamnolipid 95% series): 12.5 µg/mL
- MIC (ATCC9027, read-out: MIC w/o BS, biocide alone, Mono + Di Rhamnolipid 95% series): 12.5 µg/mL
- MIC (ATCC9027, read-out: MIC w/o BS, biocide alone, Mono-Rhamnolipid 95% series): 12.5 µg/mL
- MIC (ATCC9027, read-out: MIC w/o BS, biocide alone, Natural Saponin series): 12.5 µg/mL
- MIC (ATCC9027, read-out: MIC with BS, with Di-Rhamnolipid 95% (50 ppm)): 12.5 µg/mL
- MIC (ATCC9027, read-out: MIC with BS, with Mono + Di Rhamnolipid 95% (50 ppm)): 6.5 µg/mL
- MIC (ATCC9027, read-out: MIC with BS, with Mono-Rhamnolipid 95% (50 ppm)): 6.5 µg/mL
- MIC (ATCC9027, read-out: MIC with BS, with Natural Saponin (Purchased), 50 ppm active): > 100 µg/mL

Reference: patent publication US11807780B2, “Aqueous coatings containing biosurfactants as bio-adjuvants and methods for using same” (RHODIA OPERATIONS, priority 2018, dated 2023)
